Data published in PubChem BioAssay AID1963986 (Molecular Pharmacology Branch, DTP, NCI, 2024).
pIC50: −log10 of the molar value.

Test system: 171881-019-R-J1-PDC tumor spheroid viability
Experiment: Anticancer human tumor 171881-019-R-J1-PDC patient-derived invasive breast carcinoma cell line growth inhibition [PI3K]
Details: spheroids with HUVEC and MSC; for viability, T/C: stronger effect = lower value
How it was run: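 Complex 3D spheroids (cancer cells + endothelial HUVEC + mesenchymal stem cells); drug pairs of targeted agent x inavolisib/alpelisib/duvelisib/copanlisib; half-log series from ~Cmax, max 10 microM if Cmax unknown; endpoint viability.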

[1] = curve of first compound, second compound 0.00316 µM
[2] = curve of first compound, second compound 0.01 µM
[3] = curve of first compound, second compound 0.0316 µM
[4] = curve of first compound, second compound 0.1 µM
[5] = curve of first compound, second compound 0.316 µM
[6] = curve of first compound, second compound 1 µM
[7] = second compound 0.00316 µM, first compound 0.0316 µM
[8] = second compound 0.00316 µM, first compound 0.1 µM
[9] = second compound 0.01 µM, first compound 0.0316 µM
[10] = second compound 0.01 µM, first compound 0.1 µM
[11] = second compound 0.0316 µM, first compound 0.0316 µM
[12] = second compound 0.0316 µM, first compound 0.1 µM
[13] = second compound 0.1 µM, first compound 0.0316 µM
[14] = second compound 0.1 µM, first compound 0.1 µM
[15] = second compound 0.316 µM, first compound 0.0316 µM
[16] = second compound 0.316 µM, first compound 0.1 µM
[17] = second compound 1 µM, first compound 0.0316 µM
[18] = second compound 1 µM, first compound 0.1 µM
[19] = second compound 0.00316 µM, first compound 0.316 µM
[20] = second compound 0.00316 µM, first compound 1 µM
[21] = second compound 0.00316 µM, first compound 3.16 µM
[22] = second compound 0.00316 µM, first compound 10 µM
[23] = second compound 0.01 µM, first compound 0.316 µM
[24] = second compound 0.01 µM, first compound 1 µM
[25] = second compound 0.01 µM, first compound 3.16 µM
[26] = second compound 0.01 µM, first compound 10 µM
[27] = second compound 0.0316 µM, first compound 0.316 µM
[28] = second compound 0.0316 µM, first compound 1 µM
[29] = second compound 0.0316 µM, first compound 3.16 µM
[30] = second compound 0.0316 µM, first compound 10 µM
[31] = second compound 0.1 µM, first compound 0.316 µM
[32] = second compound 0.1 µM, first compound 1 µM
[33] = second compound 0.1 µM, first compound 3.16 µM
[34] = second compound 0.1 µM, first compound 10 µM
[35] = second compound 0.316 µM, first compound 0.316 µM
[36] = second compound 0.316 µM, first compound 1 µM
[37] = second compound 0.316 µM, first compound 3.16 µM
[38] = second compound 0.316 µM, first compound 10 µM
[39] = second compound 1 µM, first compound 0.316 µM
[40] = second compound 1 µM, first compound 1 µM
[41] = second compound 1 µM, first compound 3.16 µM
[42] = second compound 1 µM, first compound 10 µM
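Note: spheroids exposed to compound for 7 days before viability read.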
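Throughout, for viability, T/C: 100% = DMSO vehicle-treated spheroids.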

CNC(=O)c1ccc(N2C(=S)N(c3ccc(C#N)c(C(F)(F)F)c3)C(=O)C2(C)C)cc1F was tested, and the viability, T/C (compound 0.0316 µM) was 96.3% [middle of 4 runs], the viability, T/C (compound 0.1 µM) was 87.5% [middle of 4 runs] and the viability, T/C (compound 1 µM) was 90.5% [middle of 4 runs]. For the same compound, the viability, T/C (compound 3.16 µM) was 82.8% [middle of 4 runs], the viability, T/C (compound 10 µM) was 72% [middle of 4 runs] and the pIC50 (curve of compound) was less than 5.00.

With CC1(C)CCC(Nc2ncc(C(F)(F)F)c(-c3c[nH]c4c(P(C)(C)=O)c(C#N)ccc34)n2)CN1 (centres undefined) the viability, T/C (compound 0.0316 µM) was 72.4% [middle of 4 runs], the viability, T/C (compound 0.1 µM) was 70.7% [middle of 4 runs] and the viability, T/C (compound 0.316 µM) was 78.8% [middle of 4 runs]. The viability, T/C (compound 1 µM) was 82.7% [middle of 4 runs], the viability, T/C (compound 3.16 µM) was 86.8% [middle of 4 runs] and the viability, T/C (compound 10 µM) was 24% [middle of 4 runs]. For the same compound, the IC50 (curve of compound) was 5.87 µM [middle of 4 runs].

Work on Cn1ncnc1[C@H]1c2n[nH]c(=O)c3cc(F)cc(c23)N[C@@H]1c1ccc(F)cc1 + CC(Nc1ccc2c(c1)OCCn1cc(N3C(=O)OCC3C(F)F)nc1-2)C(N)=O yielded a pIC50 [1] of less than 7.00, a pIC50 [2] of less than 7.00 and a pIC50 [3] of less than 7.00. It also gave a pIC50 [4] greater than 9.50, a pIC50 [5] greater than 9.50 and a pIC50 [6] greater than 9.50. For the same compound, the viability, T/C (second compound 0.00316 µM, first compound 0.000316 µM) was 85.4%, the viability, T/C (second compound 0.00316 µM, first compound 0.001 µM) was 96.5% and the viability, T/C (second compound 0.00316 µM, first compound 0.00316 µM) was 95.2%. The viability, T/C (second compound 0.00316 µM, first compound 0.01 µM) was 91.6%, the viability, T/C [7] was 95.9% and the viability, T/C [8] was 70.6%. It also gave a viability, T/C (second compound 0.01 µM, first compound 0.000316 µM) of 79%, a viability, T/C (second compound 0.01 µM, first compound 0.001 µM) of 76.4% and a viability, T/C (second compound 0.01 µM, first compound 0.00316 µM) of 78.2%. For the same compound, the viability, T/C (second compound 0.01 µM, first compound 0.01 µM) was 65.5%, the viability, T/C [9] was 81.5% and the viability, T/C [10] was 71.5%. It also gave a viability, T/C (second compound 0.0316 µM, first compound 0.000316 µM) of 54%, a viability, T/C (second compound 0.0316 µM, first compound 0.001 µM) of 55.7% and a viability, T/C (second compound 0.0316 µM, first compound 0.00316 µM) of 51.5%. It also gave a viability, T/C (second compound 0.0316 µM, first compound 0.01 µM) of 52%, a viability, T/C [11] of 55.3% and a viability, T/C [12] of 48.7%. It also gave a viability, T/C (second compound 0.1 µM, first compound 0.000316 µM) of 37.8%, a viability, T/C (second compound 0.1 µM, first compound 0.001 µM) of 38.9% and a viability, T/C (second compound 0.1 µM, first compound 0.00316 µM) of 36.8%. It also gave a viability, T/C (second compound 0.1 µM, first compound 0.01 µM) of 38%, a viability, T/C [13] of 36.8% and a viability, T/C [14] of 34.5%. For the same compound, the viability, T/C (second compound 0.316 µM, first compound 0.000316 µM) was 26.2%, the viability, T/C (second compound 0.316 µM, first compound 0.001 µM) was 26.3% and the viability, T/C (second compound 0.316 µM, first compound 0.00316 µM) was 26.1%. The viability, T/C (second compound 0.316 µM, first compound 0.01 µM) was 25%, the viability, T/C [15] was 26.2% and the viability, T/C [16] was 21.1%. The viability, T/C (second compound 1 µM, first compound 0.000316 µM) was 21.7%, the viability, T/C (second compound 1 µM, first compound 0.001 µM) was 18.7% and the viability, T/C (second compound 1 µM, first compound 0.00316 µM) was 21.2%. It also gave a viability, T/C (second compound 1 µM, first compound 0.01 µM) of 18.6%, a viability, T/C [17] of 19.8% and a viability, T/C [18] of 17.7%.

For CNC(=O)c1ccc(N2C(=S)N(c3ccc(C#N)c(C(F)(F)F)c3)C(=O)C2(C)C)cc1F + COc1c(OCCCN2CCOCC2)ccc2c3n(c(=NC(=O)c4cnc(N)nc4)nc12)CCN3, the pIC50 [1] was less than 5.00, the pIC50 [2] was greater than 7.50 and the pIC50 [3] was greater than 7.50. It also gave a pIC50 [4] greater than 7.50, a pIC50 [5] greater than 7.50 and a pIC50 [6] greater than 7.50. It also gave a viability, T/C [7] of 64%, a viability, T/C [8] of 77.1% and a viability, T/C [19] of 68.7%. For the same compound, the viability, T/C [20] was 80.8%, the viability, T/C [21] was 62.1% and the viability, T/C [22] was 61.8%. It also gave a viability, T/C [9] of 46.4%, a viability, T/C [10] of 48% and a viability, T/C [23] of 53.4%. The viability, T/C [24] was 50.3%, the viability, T/C [25] was 43.5% and the viability, T/C [26] was 43.5%. The viability, T/C [11] was 28%, the viability, T/C [12] was 27.9% and the viability, T/C [27] was 28%. The viability, T/C [28] was 24.5%, the viability, T/C [29] was 25.8% and the viability, T/C [30] was 21.8%. The viability, T/C [13] was 9.2%, the viability, T/C [14] was 7.58% and the viability, T/C [31] was 7.75%. The viability, T/C [32] was 8.13%, the viability, T/C [33] was 8.01% and the viability, T/C [34] was 7.49%. For the same compound, the viability, T/C [15] was 2.27%, the viability, T/C [16] was 1.99% and the viability, T/C [35] was 2.25%. It also gave a viability, T/C [36] of 2.17%, a viability, T/C [37] of 2.25% and a viability, T/C [38] of 3.05%. For the same compound, the viability, T/C [17] was 1.38%, the viability, T/C [18] was 1.14% and the viability, T/C [39] was 1.18%. The viability, T/C [40] was 1.73%, the viability, T/C [41] was 1.02% and the viability, T/C [42] was 1.64%.

In the case of CC1(C)CCC(Nc2ncc(C(F)(F)F)c(-c3c[nH]c4c(P(C)(C)=O)c(C#N)ccc34)n2)CN1 (centres undefined) + CC(Nc1ccc2c(c1)OCCn1cc(N3C(=O)OCC3C(F)F)nc1-2)C(N)=O, the pIC50 [1] was 5.30, the pIC50 [2] was 5.35 and the pIC50 [3] was 5.78. For the same compound, the pIC50 [4] was greater than 7.50, the pIC50 [5] was greater than 7.50 and the pIC50 [6] was greater than 7.50. The viability, T/C [7] was 68%, the viability, T/C [8] was 70.8% and the viability, T/C [19] was 74.5%. It also gave a viability, T/C [20] of 72.6%, a viability, T/C [21] of 81.4% and a viability, T/C [22] of 15.6%. The viability, T/C [9] was 60.8%, the viability, T/C [10] was 65.4% and the viability, T/C [23] was 65.8%. The viability, T/C [24] was 73.6%, the viability, T/C [25] was 66.9% and the viability, T/C [26] was 12%. It also gave a viability, T/C [11] of 44.7%, a viability, T/C [12] of 49.7% and a viability, T/C [27] of 54.6%. For the same compound, the viability, T/C [28] was 57.4%, the viability, T/C [29] was 47.4% and the viability, T/C [30] was 5.82%. For the same compound, the viability, T/C [13] was 34.1%, the viability, T/C [14] was 37% and the viability, T/C [31] was 39.9%. For the same compound, the viability, T/C [32] was 40.4%, the viability, T/C [33] was 33.3% and the viability, T/C [34] was 2.6%. For the same compound, the viability, T/C [15] was 27.7%, the viability, T/C [16] was 26.8% and the viability, T/C [35] was 30.2%. The viability, T/C [36] was 29.4%, the viability, T/C [37] was 24.4% and the viability, T/C [38] was 1.37%. It also gave a viability, T/C [17] of 21.3%, a viability, T/C [18] of 22.5% and a viability, T/C [39] of 23.6%. It also gave a viability, T/C [40] of 22.9%, a viability, T/C [41] of 16.8% and a viability, T/C [42] of 1.29%.
